The conditions of data set [1]: mouse ear inflammatory test; cited from earlier work.
In a further data set the test system is EJ cells. In words: Clonogenic assay of EJ cells. The data set is classed as cell-based, human. The conditions noted are these: for colony growth: EJ cells, 5 μM, grown for two weeks. The method, then: Aliquots of one hundred EJ cells were plated out in petridish (60 mm size) and allowed to establish themselves. […] After exposure, the cells were grown for two weeks without changing the medium, and the number of cell colonies were counted.

Another data set relates to mammary tumor. As to the kind of experiment: Spontaneous tumor model (MMTV-PyVT transgenic mice). It is filed as in vivo. The conditions noted are these: 5 mg/kg daily i.p. for 28 days, vs DMSO. From the text:
Mice with a spontaneous tumor model (MMTV-PvVT (FVB/N-Tg) transgenic mice; NCI repository) develop multifocal mammary tumor (from hyperplasia to metastatic) with a high incidence of metastasis. This mouse model has been widely used for the correlation studies of human cancer (Guy et al., Moll. Cell. Biol. 12: 954-961, 1992). In addition, this mouse model has been used to evaluate the effectiveness of potential drug therapies. Generally, due to aggressiveness of tumor growth and spread in this mouse-model, only a combination of chemo-drugs is effective in tumor growth inhibition in this mouse model.
MMTV-PyVT mice were maintained until mammary tumor size reached to 6 mm, and then treated with myrsinoic acid A (NP2008) (5 mg/kg) or vehicle (DMSO) daily by i.p. for 28 days.

The next data set concerns EJ cells or A549 cells. In words: Lung or bladder tumor xenograft in nude mice. It is filed as in vivo. The conditions noted are these: intraperitoneally 1 mg/kg every 48 hours for 42 days, vs control DMSO-administered mice. As to the method:
Lung or bladder tumor xenograft-bearing mice were treated with myrsinoic acid A to evaluate its in vivo anti-tumor effect. A total of 2×10^6 EJ cells or A549 cells were implanted subcutaneously on opposite site flanks in each nude/nude mice (Charles River, Mass.). There were six mice in each group. When tumor masses grew to ˜2-5 mm in diameter, myrsinoic acid A (NP2008) was administered intraperitoneally (total 1 mg/kg) every 48 hours for 42 days.

The subject of data set [2] is phospho-EGFR, phospho-Her3/ErbB3 and phospho-AKT. In words: EGFR signaling in Iressa resistant SKBR3 cells by Western blot. The conditions noted are these: longer exposure (up to 96 hours). It is filed as cell-based, human. The method, then:
After treatment, total cell lysates were isolated and analyzed by Western blot analysis. The cells were evaluated for the presence of phospho-EGFR, phospho-Her3/ErbB3 and phospho-AKT.
For orientation: In western blotting, separated proteins are transferred to a membrane and probed.

The subject of data set [3] is human cancer cells including breast cancer cells, bladder cancer cells, colon cancer cells, and lung cancer cells. In words: Induction of cell death/apoptosis in a panel of human cancer cells. The data set is classed as cell-based. From the text:
We evaluated the ability of myrsinoic acid A (NP2008) to suppress cell growth and induce apoptosis in a panel of human cancer cells.

In another data set the test system is DNA polymerases. To be noted: cited from earlier work.
Data set [4] has as its system human cancer cells including breast cancer cells, bladder cancer cells, colon cancer cells, and lung cancer cells. As to the kind of experiment: Tumor cell growth inhibition / viable cells by crystal-violet staining. The data set is classed as cell-based. From the text: The ability to suppress the growth of cancer cells was again seen at micromolar potencies (2.5-10 microM) and was concentration dependent. […] Viable cells are shown with crystal-violet cell staining.

The next data set concerns the target T1, HB-EGF (Homo sapiens, UniProt Q99075).
T1 construct: lyophilized HB-EGF protein (R&D Systems) was dissolved in either water or PBS buffer; purchased R&D Systems
In words: Surface Plasmon Resonance (Biacore) binding to immobilized HB-EGF. To be noted: SPR, compound 0.78 uM-50 uM, 25° C. The method, then: A Biacore™ T100 (GE Healthcare, Uppsala, Sweden) was used to perform the Surface Plasmon Resonance (SPR) experiments. Sensor surface preparation and interaction analyses experiments were performed at 25° C. Prior to surface preparation, lyophilized HB-EGF protein (R&D Systems) was dissolved in either water or PBS buffer, at pH 7.4 and protein purity determined by Nu-Page 4-12% Bis-Tris gel in MOPS (3-(N-Morpholino)-propanesulfonic acid) buffer with a silver stain sensor preparation. HB-EGF was immobilized onto series S sensor chip CM4 via a standard N-ethyl-N′-(dimethyl-aminopropyl)carbodiimide/N-hydroxysuccinimide (EDC/NHS) amine coupling procedures. HB-EGF was diluted to 10 μg/mL in 10 mM sodium acetate pH5.5 for these procedures and resultant immobilization levels were 1000-1200 R.U.s. (R.U.: […]). Control surfaces were prepared similarly without protein derivatization and utilized as a reference surfaces for compound binding experiments. For compound interaction analyses, 0.01 M Hepes, pH7.4, 0.15 M NaCl, 0.05% Surfactant P20 and 5% DMSO was used. Compound samples were prepared by serial dilution in the range 0.78 uM-50 uM and flowed over control and derivatized surfaces for two minutes at a flow-rate of 80 μL/min. Zero concentration blank buffer cycles were included as negative control samples. […]
Background: Surface plasmon resonance follows binding to a sensor surface in real time, without labels.

A further data set deals with EJ cancer cells. As to the kind of experiment: Cytotoxicity assay (sulforhodamine B) in EJ cancer cells. The conditions noted are these: high and low confluent density, FIG. 10 legend. The data set is classed as cell-based, human. The method, then:
DMSO treatment was used as a control. Cells were stained with 0.4% sulforhodamine B three days after treatment. The results are shown in FIG. 10 A (cells started with higher confluent density) and FIG. 10 B (treatment experiments performed with lower confluent density). FIG. 10 C (low confluent) and FIG. 10 D show the result of a time curve experiment wherein aliquots of cells were stained at 24, 48, 72 and 96 hours.

In data set [5] the test system is human normal (non-cancerous) breast epithelial cells. In words: Toxicity in human primary normal (non-cancerous) cells. It is filed as cell-based. To be noted: 5 and 10 microM (Iressa 5 microM), 24-96 hours, Alamar Blue and cell death assays. As to the method:
The cultures were subsequently stained with crystal-violet blue to evaluate the number of live cells. […] The number of dead cells was determined by Alamar Blue staining as well as Cyto-Flow-cell death assays from Promega (Madison, Wis.).

The test system of a further data set is methioninase. To be noted: cited from earlier work.
[6] abbreviates: concentration dependent, wildtype or mutated p53 cell lines.

Entries after “also recorded” stand apart in the source; their conditions may differ.

T1 sequence (Q99075 63-148 limits assumed): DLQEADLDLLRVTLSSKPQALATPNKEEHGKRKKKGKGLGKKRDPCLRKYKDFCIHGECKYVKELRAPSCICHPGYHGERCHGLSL

Take `CC(C)=CC/C=C(\C)C1Cc2cc(C(=O)O)cc(CC=C(C)C)c2O1` (centres unmarked) [myrsinoic acid F]: the anti-inflammatory activity result in data set [1] is “act as anti-inflammatory compounds; also recorded: most potent anti-inflammatory compound”.

For the molecule `COc1cc2ncnc(Nc3ccc(F)c(Cl)c3)c2cc1OCCCN1CCOCC1` [Iressa, reference compound], the colony growth result with EJ cells is on record as “did not show any colony growth”.

As for `CC(C)=CCC/C(C)=C/Cc1cc(C(=O)O)cc(C/C=C(\C)CCC=C(C)C)c1O` [myrsinoic acid E], the anti-inflammatory activity result in data set [1] is given as “act as anti-inflammatory compounds”.

Take `CC(C)=CCC/C(C)=C/Cc1cc(C(=O)O)cc(CC=C(C)C)c1O` [myrsinoic acid A, 3-geranyl-4-hydroxy-5-(3′-methyl-2′butenyl)-benzoic acid]: the tumor mass result in the data set on mammary tumor was “significant reduction in tumor mass”. Further, the tumor growth result in the data set on EJ cells or A549 cells is “significant tumor-growth suppression”. The anti-inflammatory activity result in [1] is listed as “act as anti-inflammatory compounds”. In addition, in the data set with EJ cells, the colony growth result is “did not show any colony growth”. In addition, in the data set on EJ cells (clonogenic assay, FIG. 9 legend), the “suppression of growth of EJ cells compared with radiation or Iressa” value is “more effective”. In [2], the “phospho-EGFR, phospho-HER3 and phospho-AKT on longer exposure” value was “long term suppression”. Further, the cell death entry in data set [3] (EJ human bladder cancer cells and HCT116 human colon cancer cells (FIG. 5)) was “induces cell death”. For the same molecule, the “potencies at which apoptosis is induced” value in data set [3] (setting [6]) lay within 2.5 to 10 µM. Besides, the DNA polymerase inhibition entry in the data set with DNA polymerases is “inhibitor of some DNA polymerases”. Besides, the “number of viable cells” value in [4] (EJ, HCT116, MDA-MD486 and A549 cells, crystal-violet staining (FIG. 6)) is “decrease in the number viable cells”. Also, in data set [4] (setting [6]), the “potencies at which growth of cancer cells is suppressed” value lay within 2.5 to 10 µM. In addition, the “binding to HB-EGF” value on HB-EGF was “binding”. The “suppression of cancer cell proliferation compared with Iressa” value in the data set on EJ cancer cells is listed as “more potent suppressor of cancer cell proliferation than Iressa”. Besides, the “cytotoxicity in normal cells” value in data set [5] is on record as “less cytotoxicity in normal cells than Iressa; also recorded: non-toxic”.

Turning to `CC(C)=CCCC(C)(O)C1Cc2cc(C(=O)O)cc(CC=C(C)C)c2O1` (centres unmarked) [myrsinoic acid B], the anti-inflammatory activity entry in [1] is on record as “act as anti-inflammatory compounds”. Moreover, the methioninase inhibition result in the data set with methioninase is “methioninase inhibitor”.

As to `CC(C)=CCC[C@]1(C)Oc2c(CC=C(C)C)cc(C(=O)O)cc2C[C@@H]1O` [myrsinoic acid C], the anti-inflammatory activity entry in data set [1] is recorded as “act as anti-inflammatory compounds”.

Source of the values: patent US8232318B2, “Approaches to treat cancer using HB-EGF inhibitors” (The General Hospital Corporation, priority 2009, dated 2012).
